According to article PMC11277145, “Wrinkle-Improving Effect of Novel Peptide That Binds to Nicotinic Acetylcholine Receptor” (International Journal of Molecular Sciences, 2024):
Where no end group is shown, it is not given here.

What was measured:
[1] = system: human cornea model (MCTT HCE^TM); experiment: Eye irritation test, human cornea model (MCTT HCE); assay type: cell-based; details: for Cell survival (%Control): 10 min exposure, 18 h post-culture, WST-1; for Average absorption: mean of N1 and N2; for Absorption (N1): replicate N1, WST-1, 450 nm; for Absorption (N2): replicate N2, WST-1, 450 nm
Method: To evaluate the eye irritation potential of the peptide, an in vitro experimental model recognized by the OECD as an alternative animal evaluation method, the human cornea model (MCTT HCE^TM), was used. The experiment was conducted according to the standard experimental method provided by the manufacturer, Biosolution (Seoul, Republic of Korea). First, before the experiment, the color interference of the test material was checked, and to begin the experiment, MCTT HCE^TM was incubated for 22 h at 5% CO2 and 37 °C. Next, 40 μL of the peptide was applied to the top of the MCTT HCE^TM and left to react for 10 min. Afterwards, the peptide was removed using DPBS, and MCTT HCE^TM was transferred to a new medium and cultured for 18 h at 5% CO2 and 37 °C. After the culture was completed, 200 μL/well of WST-1 solution diluted at a ratio of 1:25 was added to a new plate, MCTT HCE^TM was transferred thereon, and 100 μL of WST-1 solution was treated inside.

[2] = target: T1, nAChR subunit α1 (Homo sapiens, UniProt P02708); experiment: SPR binding affinity to immobilized nAChR subunit α1
T1 construct: purchased MyBioSource MBS963713
Excerpt: The ligand used recombinant human acetylcholine receptor subunit α1, Cat. No. MBS963713 (MyBioSource, San Diego, CA, USA), and SYN®-AKE used dipeptide diaminobutyroyl benzylamide (Cayman Chemical, Ann Arbor, MI, USA). All peptides used in this study were synthesized and supplied by Anygen (Gwangju, Republic of Korea). Phosphate-buffered saline (PBS), Tween 20, polyethylene glycol (weight-averaged molecular weight (MW) = 8000), LB agar, and bovine serum albumin (BSA) were purchased from Sigma-Aldrich (St. Louis, MO, USA). All reagents and cell culture media were purchased from WELGENE (Gyeongsan-si, Republic of Korea). The INCI name for the novel peptide is Palmitoyl Hexapeptide-93. It was synthesized by Incospharm (Daejeon, Republic of Korea), and clinical trials were conducted with a content of 500 ppm (w/v).
The SPR analysis was performed using a BIACORE 3000 (GE healthcare, Chicago, IL, USA). The nAChR subunit α1 was immobilized on a CM5 sensor chip by injecting the protein diluted in PBS (0.2 M phosphate buffer, 0.027 M KCl, 1.37 M NaCl, pH 7.4) at a concentration of 0.35 mg/mL at a flow rate of 5 μL min^−1. After, 5 μM peptide was injected into running buffer (20 mM Tris, pH 7) and its interaction with nAChR subunit α1 was measured at a flow rate of 30 μL min^−1. For kinetic experiments, peptides diluted in running buffer at concentrations ranging from […] to 200, 400, 600, 1000, and 1200 nM were injected at a flow rate of 30 μL min^−1 over the immobilized nAChR subunit α1. The association and dissociation kinetic rate constants (ka and kd) and the equilibrium […], KD, were calculated using BIAevaluation 3.1 software.

[3] = system: dermal fibroblasts; experiment: In vitro cell viability (MTT) assay; assay type: cell-based, human; details: 24 h
Method: (§1) TE671 rhabdomyosarcoma cell line was purchased from Korea Cell Line Bank (Seoul, Republic of Korea). Dermal fibroblasts (Hs68) were purchased from American Type Culture Collection. Cells were cultured in Dulbecco’s Modified Eagle’s medium (DMEM) and medium containing 10% fetal bovine serum (FBS), 1% penicillin-streptomycin at 37 °C, and up to 5% CO2. Human skin keratinocytes (HEKn) were purchased from Thermo Fisher Scientific (Waltham, MA, USA) and cultured using keratinocyte growth medium, keratinocyte-SFM supplemented with epidermal growth factor (EGF) and bovine pituitary extract (BPE) at 37 °C, and up to 5% CO2.
The in vitro cytotoxicity of the novel peptide on cells was assessed using the MTT [(3-(4,5-dimethylthiazol-2-yl)-2,5-diphenyltetrazolium bromide] cell viability assay. Briefly, dermal fibroblasts were cultured in 24-well plates at a density of 1 × 10^5 cells/well for 18 h. After the medium was removed, the sample diluted in FBS-free medium was added and cultured for 24 h. Then, after the medium was removed, MTT solution was added at a concentration of […] and left to react for 3 h. Unreacted MTT was removed, 100 μL of DMSO was added to dissolve the formed reaction product, and the absorbance at 540 nm was measured and evaluated using an ELISA reader.

[4] = system: human skin; experiment: Human skin irritation patch test; assay type: in vivo
Method: The skin irritation test was conducted at CRA Korea Co., Ltd. in the Republic of Korea, with the approval serial number CRA21-HIPTRP1001. The patch used was the IQ Ultra Chamber (Chemotechnique Diagnostics, Vellinge, Sweden). The human skin primary irritation test was completed, with all 31 subjects participating until the end of the study. The test area for the product was the back (excluding the spinal area). The patch was applied for 24 h and then removed. The first evaluation was conducted 30 min after patch removal while waiting for the transient erythema to disappear due to removal, and the second evaluation was conducted 24 h after patch removal. The irritation criterion used a measurement evaluation method designed by Frosch and Kligman by applying the reading standards of the International Contact Dermatitis Research Group (ICDRG).

[5] = system: muscle nAChR (TE671 cells expressing nAChRs); experiment: In vitro intracellular nicotine response assay; assay type: cell-based, human; details: 400 μM nicotine; for nicotine response: Fura-2-AM 340/380 nm, positive control, mean of three repeated measurements
Method: as §1
TE671 cells were cultured in DMEM and medium containing 10% FBS, 1% penicillin-streptomycin at 37 °C, and up to 5% CO2. An 18 mm coverslip was placed on a 12-well cell culture plate, cultured cells were removed with trypsin, and 1 mL was dispensed into each well to make 2 × 10^4 cells/well, followed by culturing for 4 days. The coverslip with the cultured cells was transferred to a new 12-well plate, mixed with 997 μL of HBSS buffer and 3 μL of Fura-2-AM (Invitrogen, Waltham, MA, USA), and incubated for 15 min. After incubation, the remaining Fura-2-AM was removed by washing three times with HBSS buffer, and 1 mL of HBSS buffer was additionally dispensed. After mounting the coverslip in the chamber (Live Cell Instrument, Namyangju-si, Republic of Korea), 500 μL of HBSS buffer was dispensed, and the peptide and nicotine samples to be tested were adjusted according to the concentration. Then, 10 to 20 cells were selected and captured alternately at 340 nm and 380 nm wavelengths at 500 ms intervals through a fluorescence microscope (DMI3000 B, Leica Microsystems, Wetzlar, Germany). The fluorescence ratio at 340/380 nm was calculated using the LAS X program.

[6] = system: nAChRs; details: ref [16]; read-out: IC50 (binds to nAChRs and inhibits the action of ACh); cited from earlier work
Excerpt: Muscle contraction is induced by acetylcholine (ACh), a neurotransmitter released from nerve cells. ACh is released into the space between muscles and nerves when synaptic vesicles fuse with the cell membrane through the action of the SNARE (Soluble N-ethylmaleimide-sensitive factor attachment protein receptor) complex within nerve cells. Released ACh binds to nAChR or muscarinic acetylcholine receptor (mAChR) on the muscle cell surface to induce muscle contraction. Facial wrinkles are formed by muscle contraction through the binding of muscle nAChRs (subtypes α1, β1, δ, γ, and ...

[7] = methyl acetate (no concentration)
[8] = 0.1ppm, 30 min after patch removal, 31 subjects
[9] = 0.1ppm, 24 hours after patch removal, 31 subjects
[10] = 1ppm, 30 min after patch removal, 31 subjects
[11] = 1ppm, 24 hours after patch removal, 31 subjects
[12] = 10ppm, 30 min after patch removal, 31 subjects
[13] = 10ppm, 24 hours after patch removal, 31 subjects
[14] = 100ppm, 30 min after patch removal, 31 subjects
[15] = 100ppm, 24 hours after patch removal, 31 subjects

T1 sequence (P02708 21-457): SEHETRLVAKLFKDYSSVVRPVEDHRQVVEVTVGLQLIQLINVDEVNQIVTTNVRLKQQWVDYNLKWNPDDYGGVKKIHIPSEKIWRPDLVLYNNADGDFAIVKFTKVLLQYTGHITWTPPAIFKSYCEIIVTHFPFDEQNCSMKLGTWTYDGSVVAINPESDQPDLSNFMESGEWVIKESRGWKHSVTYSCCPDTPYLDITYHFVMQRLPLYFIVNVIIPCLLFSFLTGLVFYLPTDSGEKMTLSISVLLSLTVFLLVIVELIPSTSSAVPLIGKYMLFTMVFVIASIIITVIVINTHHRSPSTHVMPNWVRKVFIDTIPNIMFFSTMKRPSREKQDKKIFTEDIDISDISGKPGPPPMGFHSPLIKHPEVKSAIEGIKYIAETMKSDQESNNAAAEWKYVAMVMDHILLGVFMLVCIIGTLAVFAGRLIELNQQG

## COC(C)=O [Methyl acetate, reference compound]
[1]; [7]
  Average absorption, second value: 0.066
  eye irritation judgement (Standard): Irritant
  Cell survival (%Control): 4.70%
  Average absorption: 0.12
  Absorption (N1): 0.102
  Absorption (N2): 0.138

## RRGVRR [Peptide 289]
[2]; SPR, 200-1200 nM, 20 mM Tris pH 7, 30 μL/min, read-out: ka
  kon: 14900 M⁻¹ s⁻¹
[2]; binding affinity to nAChR subunit α1, bound given in abstract, SPR
  Kd: < 1000 nM
[2]; equilibrium dissociation constant (KD), SPR, 200-1200 nM, 20 mM Tris pH 7, BIAevaluation 3.1
  Kd: 609 nM
[2]; pH 7, read-out: dissociation rate constant (kd)
  koff: 0.00906 s⁻¹
[3]; 0.1 ppm to 100 ppm, dermal fibroblasts, 540 nm
  cytotoxicity: no toxicity
[3]; up to 100 μg/mL, fibroblasts
  cytotoxicity: non-cytotoxic
[4]; 0.1ppm
  skin irritation judgement: No irritation
[4]; 0.1 ppm to 100 ppm, 24 h patch, back, 31 subjects
  skin reactivity score: 0.0 ± 0.00
[4]; 0.1 ppm to 100 ppm, Frosch and Kligman and COLIPA criteria, 31 subjects
  skin irritation: non-irritation
[4]; 0.1ppm, 31 subjects
  Average response (%): 0.0±0.00%
[4]; [8]
  subjects with 1+ reaction: 0
  subjects with 2+ reaction: 0
  subjects with 3+ reaction: 0
  subjects with ± reaction: 0
[4]; [9]
  subjects with 1+ reaction: 0
  subjects with 2+ reaction: 0
  subjects with 3+ reaction: 0
  subjects with ± reaction: 0
[4]; 1ppm
  skin irritation judgement: No irritation
[4]; 1ppm, 31 subjects
  Average response (%): 0.0±0.00%
[4]; [10]
  subjects with 1+ reaction: 0
  subjects with 2+ reaction: 0
  subjects with 3+ reaction: 0
  subjects with ± reaction: 0
[4]; [11]
  subjects with 1+ reaction: 0
  subjects with 2+ reaction: 0
  subjects with 3+ reaction: 0
  subjects with ± reaction: 0
[4]; 10ppm
  skin irritation judgement: No irritation
[4]; 10ppm, 31 subjects
  Average response (%): 0.0±0.00%
[4]; [12]
  subjects with 1+ reaction: 0
  subjects with 2+ reaction: 0
  subjects with 3+ reaction: 0
  subjects with ± reaction: 0
[4]; [13]
  subjects with 1+ reaction: 0
  subjects with 2+ reaction: 0
  subjects with 3+ reaction: 0
  subjects with ± reaction: 0
[4]; 100ppm
  skin irritation judgement: No irritation
[4]; 100ppm, 31 subjects
  Average response (%): 0.0±0.00%
[4]; [14]
  subjects with 1+ reaction: 0
  subjects with 2+ reaction: 0
  subjects with 3+ reaction: 0
  subjects with ± reaction: 0
[4]; [15]
  subjects with 1+ reaction: 0
  subjects with 2+ reaction: 0
  subjects with 3+ reaction: 0
  subjects with ± reaction: 0
[1]; 0.1ppm
  Average absorption, second value: 1.469
  Cell survival (%Control): 105.30%
  Average absorption: 1.523
  Absorption (N1): 1.461
  Absorption (N2): 1.585
[1]; 0.1 ppm to 100 ppm, MCTT HCE
  eye irritation: non-irritating
[1]; 1ppm
  Average absorption, second value: 1.553
  Cell survival (%Control): 111.30%
  Average absorption: 1.607
  Absorption (N1): 1.558
  Absorption (N2): 1.656
[1]; 10ppm
  Average absorption, second value: 1.47
  Cell survival (%Control): 105.30%
  Average absorption: 1.524
  Absorption (N1): 1.464
  Absorption (N2): 1.583
[1]; 100ppm
  Average absorption, second value: 1.456
  Cell survival (%Control): 104.30%
  Average absorption: 1.51
  Absorption (N1): 1.563
  Absorption (N2): 1.456

## dipeptide diaminobutyroyl benzylamide [SYN®-AKE]
[5]; 100 μM
  nicotine response: 98%
[5]; 250 μM
  nicotine response: 52.5%
[5]
  concentration required to inhibit the nicotinic response: 500 µM
[5]; 500 μM
  nicotine response: 3.5%
[6]
  IC50: 180000 nM
